Reference: patent publication US8461118B2, “Lytic peptides having anti-proliferative activity against prostate cancer cells” (Tuskegee University, priority 2011, dated 2013)
Several values for one entry are separate records, joined by “and”; a condition that tells them apart may be missing. Identical values can stand only once. Entries after “also recorded” stand apart in the source; their conditions may differ. Ends that are not written are not given here.

Columns and labels:
[1] = tested on: LNCaP cells; assay: MTT cytotoxicity assay, LNCaP prostate cancer cells; assay type: cell-based, human; conditions: 72 h exposure
From the text: (§1) To evaluate the efficacy of these peptides in inhibiting prostate cancer, a prostate cancer progression model was followed that utilized several different cell lines in various experiments as described herein to form this model, including the known cell lines DU-145, PC-3, LNCaP, and hPrEC. […] This cell line has both LHRH-R and epidermal growth factor receptors (“EGFR”), and produces the EGFR ligands, transforming growth factor α (TGF-α) and EGF. The androgen-unresponsive PC-3 cell line is derived from a human bone metastasis of a grade IV prostatic adenocarcinoma, while the androgen-responsive LNCaP cell line is derived from a human lymph node metastasis. […]
(§2) In the various experiments described below, unless otherwise noted, the cytotoxicity of the various peptides when measured was evaluated using the methylthiazol tetrazolium (“MTT”) assay (Sigma Aldrich, MO), which determines the number of viable cells from the formazan crystals produced by metabolic activity. […] The quantity of solublized formazan per well was determined by a Spectromax plate reader at 540 nm (Molecular Devices, CA). […]

[2] = tested on: PC-3 cells; assay type: cell-based, human; conditions: for IC50: MTT, 72 h exposure
From the text: To evaluate the efficacy of these peptides in inhibiting prostate cancer, a prostate cancer progression model was followed that utilized several different cell lines in various experiments as described herein to form this model, including the known cell lines DU-145, PC-3, LNCaP, and hPrEC. […] This cell line has both LHRH-R and epidermal growth factor receptors (“EGFR”), and produces the EGFR ligands, transforming growth factor α (TGF-α) and EGF. The androgen-unresponsive PC-3 cell line is derived from a human bone metastasis of a grade IV prostatic adenocarcinoma, while the androgen-responsive LNCaP cell line is derived from a human lymph node metastasis. For all experiments described herein, normal primary human prostate epithelial cells (“hPrEC”) were obtained from Clonetics (Lonza Inc., Walkersville, Md.), while the other cell lines were purchased from ATCC and maintained in T-media (Gibco Invitrogen, CA) supplemented with 10% fetal bovine serum (FBS) (Gibco Invitrogen, CA) and 1% penicillin/streptomycin (Cellgro Mediatech, Inc., VA).
In the various experiments described below, unless otherwise noted, the cytotoxicity of the various peptides when measured was evaluated using the methylthiazol tetrazolium (“MTT”) assay (Sigma Aldrich, MO), which determines the number of viable cells from the formazan crystals produced by metabolic activity. The cells in such cytotoxicity experiments were plated in 96-well plates at 2.5×10^3 cells/well, and were allowed to reattach overnight. They were then exposed to the test lytic peptides (1-20 μM) for 72 h. The MTT reagent [3-(4,5-dimethylthiazol-2-yl)-2,5-diphenyltetrazolium bromide], 50 μL) in T-media was added to each well, and the plates were incubated for 2 h. The supernatant media was aspirated, and formazan crystals were dissolved with […] dimethylsulfoxide per well at 37° C. for 10 min. The quantity of solublized formazan per well was determined by a Spectromax plate reader at 540 nm (Molecular Devices, CA). Each assay was performed at least three times with six replicates per data point.
For all experiments, unless otherwise noted, statistics were performed with Microsoft Excel. Independent Student's t-test was utilized to determine statistical differences between experimental subjects and control subjects. The IC50 values were derived through regression analysis of the continuous data by cubic spline interpolation utilizing Aabel™ (Gigawiz Ltd. Co., OK), a software application that integrates statistics (inferential and multivariate) with graphical representation.
To determine the effectiveness of JCH and JC21 with or without mLHRH conjugates, androgen-independent, highly metastatic PC-3 cells were exposed to the peptides in increasing concentrations (0-20 μM).
For this experiment, IC50 values were determined by interpolation of three individual experiments performed in quadruplicate at 50% cell death. All values were reported in the table of FIG. 2A were determined to be significant compared to control p<0.001. In the table, “n.d.” serves as an abbreviation for “not determined,” as tests were not conducted for JHC and JC21 against LNCaP and DU-145.

[3] = tested on: GFP-HS-27a bone marrow stromal cells; assay: Co-culture differential fluorescence, GFP-HS-27a bone marrow stromal cells; assay type: cell-based; conditions: for relative intensity of GFP-HS-27a cells: JCHmLHRH 5 μM or JC21mLHRH 8 μM, 12 hr
Procedure: In the various experiments described below, unless otherwise noted, co-cultures were prepared and utilized as described by Yates et al. (see Yates C, Shepard C R, Papworth G, Dash A, Beer Stolz D, Tannenbaum S, et al., Novel three-dimensional organotypic liver bioreactor to directly visualize early events in metastatic progression, Adv Cancer Res, 2007; 97:225-46; and Yates C, Shepard C R, Stolz D B, Wells A., Co-culturing human prostate carcinoma cells with hepatocytes leads to increased expression of E-cadherin, Br J Cancer 2007; 96:1246-52), with certain modifications as noted herein. The co-cultures consisted of 50,000 cells/cm^2 of GFP-HS-27a bone marrow stromal cells and 2000 cells/cm^2 of red fluorescent protein PC-3 prostate cancer cells (“RFP-PC-3”), and were maintained in Dulbecco's modified Eagle medium, and cell death was monitored in real-time (as described above) by differential fluorescence. To determine relative intensity, the total intensity area of each image as well as the threshold intensity for each channel was measured utilizing Metamorph Imaging Software (Molecular Devices, Inc., CA), and the significance between the two intensities was then analyzed statistically. All quantitative data was normalized to each control image.
For this experiment, RFP-PC-3 cell cultures, GFP-HS-27a cell cultures, and RFP-PC-3/GFP-HS-27a cell co-cultures were exposed to JCHmLHRH (5 μM) and JC21mLHRH (8 μM), and the various cultures were monitored by differential immunofluorescence over 12 h period. Images comprising black and white photographs of the cultures at the 0 hr, 6 hr, and 12 hr marks following administration of JCHmLHRH and JC21mLHRH are shown in FIG. 5C and FIG. 5D, respectively. Two trials of this experiment were conducted with similar results, and the photographs of FIG. 5C and FIG. 5D are illustrative of the results of both trials. […] Further, the RFP-PC-3/GFP-HS-27a co-culture images at the 6 hr and 12 hr marks largely resemble the corresponding time images for GFP-HS-27a cultures in relative intensity.
FIG. 5E in turn provides a chart showing the relative intensity of total areas measured under differential fluorescence of the co-culture cells after they were exposed to JCHmLHRH and JC21mLHRH in this experiment.

[4] = tested on: normal primary hPrEC cells; assay: MTT cytotoxicity on normal primary prostate epithelial cells; assay type: cell-based, human; conditions: 0-20 μM
From the text: as §1, §2

[5] = tested on: DU-145 cells; assay: MTT cytotoxicity assay, DU-145 prostate cancer cells; assay type: cell-based, human; conditions: 72 h exposure
From the text: as §1, §2

[6] = tested on: PC-3 cells treated with siRNA-LHRH-R; assay: Peptide sensitivity of PC-3 cells after siRNA-LHRH-R knockdown (trypan blue exclusion); assay type: cell-based, human; conditions: 100 nM siRNA-LHRH-R
Procedure: To more firmly establish the significance of the mLHRH sequence on peptide activity, PC-3 cells were treated with siRNA-LHRH at 50 nM and 100 nM concentrations and assayed LHRH levels by immunofluorescence. In this Experiment, PC-3 cells were treated with siRNA-LHRH-R at 50 nM and 100 nM, and compared to control. For this experiment, a total of about 2×10^5 cells, equaling approximately 60-70% confluency, were plated in six-well plates. The LHRH-R siRNA (Santa Cruz, Calif.) was diluted in […] of Opti-MEM (Invitrogen, CA). A […] aliquot of Lipofectamine 2000 (Invitrogen, CA) was diluted in […] of Opti-MEM and incubated for 5 min at room temperature. The diluted siRNA and Lipofectamine 2000 were mixed according to manufacturer's directions and incubated for 20 min at room temperature. The resulting complexes were added to each well and incubated for 24 h. […]
LHRH-R expression was determined by immuno-fluorescence staining with 4′,6-diamidino-2-phenylindole (“DAPI”) utilizing anti-LHRH-R antibody (Lab Vision, CA) and Alexa 488 secondary antibody (Invitrogen, CA).
For purposes of comparison, PC-3 cells were treated with JC21 mLHRH or JCHmLHRH in the presence or absence of 100 nM siRNA-LHRH-R or siRNA-scramble treated cells. Cell viability was determined by trypan blue exclusion, and the results are depicted in the graph of FIG. 3C.

[7] = tested on: RFP-PC-3 cells; assay: Co-culture differential fluorescence, RFP-PC-3 cells; assay type: cell-based, human; conditions: JCHmLHRH 5 μM or JC21mLHRH 8 μM, 12 hr
Procedure: In the various experiments described below, unless otherwise noted, co-cultures were prepared and utilized as described by Yates et al. (see Yates C, Shepard C R, Papworth G, Dash A, Beer Stolz D, Tannenbaum S, et al., Novel three-dimensional organotypic liver bioreactor to directly visualize early events in metastatic progression, Adv Cancer Res, 2007; 97:225-46; and Yates C, Shepard C R, Stolz D B, Wells A., Co-culturing human prostate carcinoma cells with hepatocytes leads to increased expression of E-cadherin, Br J Cancer 2007; 96:1246-52), with certain modifications as noted herein. The co-cultures consisted of 50,000 cells/cm^2 of GFP-HS-27a bone marrow stromal cells and 2000 cells/cm^2 of red fluorescent protein PC-3 prostate cancer cells (“RFP-PC-3”), and were maintained in Dulbecco's modified Eagle medium, and cell death was monitored in real-time (as described above) by differential fluorescence. To determine relative intensity, the total intensity area of each image as well as the threshold intensity for each channel was measured utilizing Metamorph Imaging Software (Molecular Devices, Inc., CA), and the significance between the two intensities was then analyzed statistically. All quantitative data was normalized to each control image. […]

[8] = tested on: PC-3 cells; assay: Real-time imaging, trypan blue exclusion and Annexin V in PC-3 cells; assay type: cell-based, human
Procedure: In the various experiments described below, unless otherwise noted, real-time imaging of cell cultures was performed utilizing an Olympus DSU (Disk Scanning Units) Confocal microscope (Olympus America Inc., PA). The subject cells were maintained in 5% CO2 at 37° C. in an incubation chamber (Pathology Devices, Inc., MD). Images were taken every 15 min and processed utilizing MetaMorph Imaging Software (Molecular Devices, CA).
Although the mechanism associated with the anti-tumor activity of lytic peptides has not been defined, without wishing to be limited to any mechanism of action, it is believed that direct interaction of the present lytic peptides with the cell membrane causes the electrochemical potential to collapse, resulting in cell death. To investigate the potential mechanism of action, a qualitative approach utilizing real-time imaging was employed in conjunction with monitoring of a classic marker of apoptosis, Annexin V. Since the mechanism of death was unknown, real-time imaging was employed for cells in a 5% CO2 and temperature-regulated (37° C.) chamber to monitor the effects of JC21mLHRH and JCHmLHRH on PC-3 cellular responses.
PC-3 cell cultures were exposed to JCHmLHRH (5 μM) or JC21mLHRH (8 μM) and imaged continuously for 24 h with time-lapse microscopy. FIG. 5A comprises eight black and white photographs depicting real-time images of PC-3 cells after treatment with lytic peptides JCHmLHRH (5 μM) or JC21mLHRH (8 μM) taken with time-lapse microscopy under 5% CO2 and 37° C. at 0, 3, 6, and 12 hours post administration. […] There were different modes of action by which JCHmLHRH and JC21mLHRH caused cell death.
FIG. 5B is a graph reporting experimental results for cell percentage corresponding to the images of FIG. 5A. Quantification of total cell number and cell viability was determined by trypan blue exclusion after exposure to JCHmLHRH (5 μM) or JC21mLHRH (8 μM) over a 24 h period. The results shown in the graph of FIG. 5B are representative of three individual experiments performed in triplicate (where the horizontal line at approximately 60% in the graph indicates significance at p<0.0001). The data indicates a rapid mode of action was observed by both the real-time imaging and trypan blue staining mechanisms, with nearly 80% cell death after only 6 h of treatment and approximately 100% cell death after the 24 h period.

[9] = tested on: PC-3 cells; assay: PC-3 growth recovery after 24 h peptide pretreatment; assay type: cell-based, human; conditions: 24 h pretreatment JCHmLHRH 5 μM or JC21mLHRH 8 μM, 3 days
Procedure: This experiment was performed to determine whether cancerous cells could recover after JCHmLHRH or JC21mLHRH exposure. PC-3 cell cultures were exposed to JCHmLHRH (5 μM) or JC21mLHRH (8 μM) for 24 hours. Growth was measured over a 3-day period. Growth of pre-treatment and post-treatment groups were compared over time.

Substance: QHWSWGLRPGFALALKALKKALKKLKKALKKAL [JCHmLHRH]
- IC50 [1]: 4.36 µM and 4.4 µM
- IC50 [2]: 4.22 µM and 4.4 µM
- toxicity to bone marrow stromal cells in co-culture [3]: nontoxic
- relative intensity of GFP-HS-27a cells [3]: only decreases slightly
- effect on hPrEC cell proliferation / toxicity [4]: neither JCHmLHRH nor JC21mLHRH causes appreciable decreases in hPrEC cell proliferation; also recorded: nontoxic
- IC50 [5]: 4.81 µM and 4.8 µM

Substance: QHWSWGLRPGAFKKAFKKAKKAFKKAFKAFAFA [JC21mLHRH]
- decrease in sensitivity to peptide on depletion of LHRH levels [6]: 50%
- relative intensity of RFP-PC-3 cells [7]: approaches zero
- morphological changes in cells ([8]; PC-3 cells, 3 h exposure, real-time imaging): morphological changes
- cell death ([8]; PC-3 cells, JCHmLHRH 5 μM or JC21mLHRH 8 μM, 6 h of treatment): ~80%
- cell death ([8]; PC-3 cells, JCHmLHRH 5 μM or JC21mLHRH 8 μM, after the 24 h period): approximately 100%
- mode of cell death observed under microscope ([8]; PC-3 cells, JCHmLHRH 5 μM or JC21mLHRH 8 μM, time-lapse microscopy): condensing of the cellular and nuclear membrane without bursting
- expression of apoptotic marker Annexin V ([8]; exposed PC-3 cells): did not observe expression of apoptotic marker Annexin V
- toxicity to bone marrow stromal cells in co-culture [3]: nontoxic
- relative intensity of GFP-HS-27a cells [3]: only decreases slightly
- effect on hPrEC cell proliferation / toxicity [4]: neither JCHmLHRH nor JC21mLHRH causes appreciable decreases in hPrEC cell proliferation; also recorded: nontoxic
- cell growth after pretreatment [9]: completely inhibited cell growth

Substance: FALALKALKKALKKLKKALKKAL [JCH]
- IC50 [2]: 6.67 µM

Substance: mLHRH: modified LHRH binding sequence, tryptophan in place of tyrosine, QHWSWGLRPG (ends and bridges not checked; listed as Homo sapiens)
- cell death at higher concentrations ([2]; mLHRH sequence alone): failed to cause 50% cell death
- concentration causing a decrease in cell proliferation of PC-3 cells (as low as) ([2]; mLHRH sequence alone): 1 µM

Substance: AFKKAFKKAKKAFKKAFKAFAFA [JC21]
- IC50 [2]: 9.25 µM
